# Target: T1, human VR1 (Homo sapiens, UniProt Q8NER1)
# T1 construct: expressed in transfected cells
# Assay: Inhibition of Ca2+ entry in cells caused by proton, in rat glioma (C6BU1) cells stably expressing human VR1 (Fura 2 fluorescence)
# Format: cell-based
# Conditions: inhibition of proton-induced Ca2+ entry
# Description: The assay for evaluation of VR1 inhibition by the inventive compounds will be described below. The assay was intended to evaluate in vitro inhibition of Ca^2+ entry in cells caused by proton, one of the VR1 agonists.
# Rat glioma (C6BU1) cells stably expressing human VR1 were suspended in 20 mM MES buffer (at pH 6.8, contg. 20 mM 2-morpholinoethanesulfonate (referred to as MES hereinafter), 115 mM NaCl, 5 mM KCl, 1 mM MgCl2 and 14 mM D-glucose) to make a cell density of 1×10^6 cells/mL. A fluorescent dye, Fura 2-AMsolution (DojindoCorporate, Cat. No. 343-05401) was added to the suspension to make a 5 μM concentration thereof. Further, Pluronic F-127 (Wako Pure Chemical Industries, Ltd., Cat. No. P6866) was added to make a 0.1% content thereof. Then, the suspension was incubated at 37° C. for 30 min. The cells were harvested and washed three times with 20 mM MES buffer. The cells were suspended again to make a cell density of 5×10^5 cells/mL. A 500-μL portion of the suspension was taken with a cuvette (MC MEDICAL, INC., Cat. No. SSR3121), to which 10 μL of 20 mM MES buffer containing 250 mM CaCl2 was added to incorporate Ca^2+ into the cells. At the same time, 5 μL of a test compound solution (in a range of 100 μM to 10 nM in DMSO) was also added to provide a final concentration thereof in a range of 1 μM to 0.1 nM. Alternatively, 5 μL of DMSO was added as control to provide a final concentration of 1% DMSO. The suspension was set in an intracellular ionometer (CAF-110; JASCO) 10 min after those additions. The cells were stimulated with protons by addition of 60 μL of 20 mM MES buffer at pH 1.1 to the suspension to set its pH at 5.5. The activity of the test compound was determined as a difference between the minimum of fluorescence intensity before agonist stimulation and its maximum after the stimulation. The value of IC50 was derived from percentage of inhibition by the test compound compared with the control.
# In the tables, the symbol “++” indicates an IC50 value less than 100 nM and the symbol “+” indicates an IC50 value of 100 nM to 1,000 nM inclusive.
# T1 sequence (Q8NER1 whole entry): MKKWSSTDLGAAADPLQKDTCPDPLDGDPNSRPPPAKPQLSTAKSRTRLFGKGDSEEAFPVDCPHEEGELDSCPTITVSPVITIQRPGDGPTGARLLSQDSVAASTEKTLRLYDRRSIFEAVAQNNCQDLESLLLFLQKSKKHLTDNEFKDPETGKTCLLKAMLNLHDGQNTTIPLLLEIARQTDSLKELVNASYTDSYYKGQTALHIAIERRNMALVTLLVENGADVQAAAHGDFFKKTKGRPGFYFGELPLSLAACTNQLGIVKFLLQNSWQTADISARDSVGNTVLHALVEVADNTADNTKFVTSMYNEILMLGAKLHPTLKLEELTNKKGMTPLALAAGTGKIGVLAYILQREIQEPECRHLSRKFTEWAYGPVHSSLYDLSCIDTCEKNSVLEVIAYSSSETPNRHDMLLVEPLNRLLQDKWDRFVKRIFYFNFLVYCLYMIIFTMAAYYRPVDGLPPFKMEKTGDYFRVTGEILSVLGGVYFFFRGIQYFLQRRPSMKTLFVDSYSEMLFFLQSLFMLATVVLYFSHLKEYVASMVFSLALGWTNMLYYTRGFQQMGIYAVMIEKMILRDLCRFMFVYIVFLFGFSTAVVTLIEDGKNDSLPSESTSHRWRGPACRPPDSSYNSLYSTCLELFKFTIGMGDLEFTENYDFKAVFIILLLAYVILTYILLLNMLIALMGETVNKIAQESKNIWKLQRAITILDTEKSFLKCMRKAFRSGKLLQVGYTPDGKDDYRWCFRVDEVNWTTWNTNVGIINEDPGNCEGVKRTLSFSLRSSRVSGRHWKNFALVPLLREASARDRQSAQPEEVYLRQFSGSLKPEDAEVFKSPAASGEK
row,IC50,Structure (SMILES)
1,< 100 nM,COCC1CCN(c2ccc(NC(=O)c3cccc4c3OCCN4c3ccc(C)cn3)cc2F)CC1 [Example 1-071]
2,< 100 nM,COC1CCN(c2ccc(NC(=O)c3cccc4c3OCCN4c3ccc(C)cn3)cc2F)C1 (centres unmarked) [Example 1-072]
3,< 100 nM,COC(=O)c1cc(NC(=O)c2cccc3c2OCCN3c2ccc(C)cn2)ccc1OCC(C)C [Example 1-073]
4,100 to 1000 nM,Cc1ccc(N2CCOc3c(C(=O)Nc4ccc(OCC(C)C)c(C(N)=O)c4)cccc32)nc1 [Example 1-075]
5,100 to 1000 nM,CNC(=O)c1cc(NC(=O)c2cccc3c2OCCN3c2ccc(C)cn2)ccc1OCC(C)C [Example 1-076]
6,100 to 1000 nM,Cc1ccc(N2CCOc3c(C(=O)Nc4ccc(OCC(C)C)c(C(=O)N(C)C)c4)cccc32)nc1 [Example 1-077]
7,< 100 nM,CC(=O)c1ccc(NC(=O)c2cccc3c2OCCN3c2ccc(C)cn2)cc1 [Example 1-078]
8,< 100 nM,CC(=O)c1cc(NC(=O)c2cccc3c2OCCN3c2ccc(C)cn2)ccc1Cl [Example 1-080]
9,< 100 nM,Cc1ccc(N2CCOc3c(C(=O)Nc4ccc(Cl)c(C(C)(C)C)c4)cccc32)nc1 [Example 1-081]
10,< 100 nM,COC(C)(C)c1ccc(NC(=O)c2cccc3c2OCCN3c2ccc(C)cn2)cc1 [Example 1-082]
11,< 100 nM,COc1cc(NC(=O)c2cccc3c2OCCN3c2ccc(C)cn2)ccc1Cl [Example 1-083]
12,< 100 nM,CCCOc1ccc(NC(=O)c2cccc3c2OCCN3c2ccc(C)cn2)cc1 [Example 1-084]
13,< 100 nM,CCCOc1ccc(NC(=O)c2cccc3c2OCCN3c2ccc(C)cn2)cc1F [Example 1-085]
14,< 100 nM,CCOc1ccc(NC(=O)c2cccc3c2OCCN3c2ccc(C)cn2)cc1F [Example 1-086]
15,< 100 nM,CCOc1cc(NC(=O)c2cccc3c2OCCN3c2ccc(C)cn2)ccc1C [Example 1-087]
16,< 100 nM,COCCOc1cc(NC(=O)c2cccc3c2OCCN3c2ccc(C)cn2)ccc1C [Example 1-089]
17,< 100 nM,COCC1CCCCN1c1ccc(NC(=O)c2cccc3c2OCCN3c2ccc(C)cn2)cc1F (centres unmarked) [Example 1-090]
18,< 100 nM,Cc1ccc(N2CCOc3c(C(=O)Nc4ccc(Cl)cc4)cccc32)nc1 [Example 1-091]
19,< 100 nM,Cc1ccc(N2CCOc3c(C(=O)Nc4ccc(C)c(F)c4)cccc32)nc1 [Example 1-092]
20,100 to 1000 nM,Cc1ccc(N2CCOc3c(C(=O)Nc4ccc(Cl)nc4)cccc32)nc1 [Example 1-093]
21,< 100 nM,CCOc1ccc(NC(=O)c2cccc3c2OCCN3c2ncccc2Cl)cc1 [Example 1-094]
22,< 100 nM,O=C(Nc1ccc(N2CCCCC2)c(F)c1)c1cccc2c1OCCN2c1ncccc1Cl [Example 1-095]
23,100 to 1000 nM,O=C(N[C@H]1CC[C@H](OC2CCCC2)CC1)c1cccc2c1OCCN2c1ncccc1Cl [Example 1-098]

row,IC50,Structure (SMILES)
1,100 to 1000 nM,O=C(N[C@H]1CC[C@H](OC2CCCCC2)CC1)c1cccc2c1OCCN2c1ncccc1Cl [Example 1-099]
2,< 100 nM,O=C(Nc1ccc(C(F)(F)F)cc1)c1cccc2c1OCCN2c1ncccc1Cl [Example 1-100]
3,< 100 nM,COC1CCN(c2ccc(NC(=O)c3cccc4c3OCCN4c3ncccc3Cl)cc2F)CC1 [Example 1-101]
4,< 100 nM,CCOC1CCN(c2ccc(NC(=O)c3cccc4c3OCCN4c3ncccc3Cl)cc2F)CC1 [Example 1-102]
5,< 100 nM,CC(C)OC1CCN(c2ccc(NC(=O)c3cccc4c3OCCN4c3ncccc3Cl)cc2F)CC1 [Example 1-103]
6,< 100 nM,CC(C)CNc1ccc(NC(=O)c2cccc3c2OCCN3c2ncccc2Cl)cc1F [Example 1-104]
7,100 to 1000 nM,Cc1ccc(N2CCOc3c(C(=O)N[C@H]4CC[C@H](OC(C)C)CC4)cccc32)nc1 [Example 1-106]
8,< 100 nM,Cc1ccc(N2CCOc3c(C(=O)N[C@H]4CC[C@H](OC5CCCCC5)CC4)cccc32)nc1 [Example 1-107]
9,< 100 nM,Cc1ccc(N2CCOc3c(C(=O)N[C@H]4CC[C@H](OCC5CCCCC5)CC4)cccc32)nc1 [Example 1-119]
10,< 100 nM,CCOc1ccc(NC(=O)c2cccc3c2OCCN3c2ccc(Cl)cn2)cc1 [Example 1-120]
11,< 100 nM,O=C(Nc1ccc(Cl)cc1)c1cccc2c1OCCN2c1ccc(Cl)cn1 [Example 1-121]
12,< 100 nM,COC1CCN(c2ccc(NC(=O)c3cccc4c3OCCN4c3ccc(Cl)cn3)cc2F)CC1 [Example 1-122]
13,< 100 nM,O=C(Nc1ccc(C(F)(F)F)cc1)c1cccc2c1OCCN2c1ccc(Cl)cn1 [Example 1-123]
14,< 100 nM,Cc1ccc(N2CCOc3c(C(=O)NCCc4ccccc4)cccc32)nc1 [Example 1-124]
15,< 100 nM,Cc1ccc(N2CCOc3c(C(=O)NCCc4ccc(Cl)cc4)cccc32)nc1 [Example 1-125]
16,< 100 nM,Cc1ccc(N2CCOc3c(C(=O)NCCc4cccc(Cl)c4)cccc32)nc1 [Example 1-126]
17,< 100 nM,Cc1ccc(N2CCOc3c(C(=O)NCCc4ccccc4Cl)cccc32)nc1 [Example 1-127]
18,100 to 1000 nM,O=C(O)c1ccc(N2CCOc3c(C(=O)Nc4ccc(C(F)(F)F)cc4)cccc32)nc1 [Example 1-128]
19,< 100 nM,CC(C)(O)c1cnc(N2CCOc3c(C(=O)Nc4ccc(C(F)(F)F)cc4)cccc32)c(Cl)c1 [Example 1-129]
20,< 100 nM,CC(O)c1cnc(N2CCOc3c(C(=O)Nc4ccc(C(F)(F)F)cc4)cccc32)c(Cl)c1 (centres unmarked) [Example 1-130]
21,100 to 1000 nM,O=C(O)c1cnc(N2CCOc3c(C(=O)Nc4ccc(C(F)(F)F)c(F)c4)cccc32)c(Cl)c1 [Example 1-131]
22,100 to 1000 nM,COC(=O)c1ccc(N2CCOc3c(C(=O)Nc4ccc(C(C)(C)C)cc4)cccc32)nc1 [Example 1-132]
23,100 to 1000 nM,CC(C)(C)c1ccc(NC(=O)c2cccc3c2OCCN3c2ccc(C(=O)O)cn2)cc1 [Example 1-133]

row,IC50,Structure (SMILES)
1,< 100 nM,O=C(O)c1cnc(N2CCOc3c(C(=O)Nc4ccc(C(F)(F)F)cc4)cccc32)c(Cl)c1 [Example 1-136]
2,< 100 nM,CC(C)(C)c1ccc(NC(=O)c2cccc3c2OCCN3c2ccc([N+](=O)[O-])cn2)cc1 [Example 1-140]
3,< 100 nM,CC(C)(C)c1ccc(NC(=O)c2cccc3c2OCCN3c2ccc(N)cn2)cc1 [Example 1-141]
4,< 100 nM,COCc1ccc(N2CCOc3c(C(=O)Nc4ccc(C(F)(F)F)cc4)cccc32)nc1 [Example 1-143]
5,< 100 nM,CCOc1ccc(N2CCOc3c(C(=O)Nc4ccc(C(F)(F)F)cc4)cccc32)nc1 [Example 1-144]
6,< 100 nM,COc1cnc(N2CCOc3c(C(=O)Nc4ccc(C(F)(F)F)cc4)cccc32)c(Cl)c1 [Example 1-145]
7,< 100 nM,O=C(Nc1ccc(C(F)(F)F)cc1)c1cccc2c1OCCN2c1ccc(O)cn1 [Example 1-146]
8,< 100 nM,COc1ccc(N2CCOc3c(C(=O)Nc4ccc(C(F)(F)F)cc4)cccc32)nc1 [Example 1-147]
9,< 100 nM,CC(C)(C)c1ccc(NC(=O)c2cccc3c2OCCN3c2cc(Cl)ccn2)cc1 [Example 1-148]
10,< 100 nM,O=C(Nc1ccc(C(F)(F)F)cc1)c1cccc2c1OCCN2c1ccc(F)cn1 [Example 1-149]
11,< 100 nM,O=C(Nc1ccc(C(F)(F)F)cc1)c1cccc2c1OCCN2c1ncc(F)cc1F [Example 1-150]
12,< 100 nM,COc1cccnc1N1CCOc2c(C(=O)Nc3ccc(C(C)(C)C)cc3)cccc21 [Example 1-151]
13,100 to 1000 nM,Cc1ccc(N2CCOc3c(C(=O)NN4CCC(C(C)(C)C)CC4)cccc32)nc1 [Example 1-152]
14,100 to 1000 nM,O=C(Nc1ccc(C(F)(F)F)cc1)c1cccc2c1OCCN2c1ccc(OCCO)cn1 [Example 1-153]
15,< 100 nM,O=C(Nc1ccc(C(F)(F)F)cc1)c1cccc2c1OCCN2c1ncc(CCO)cc1Cl [Example 1-154]
16,< 100 nM,Cc1ccc(N2CCOc3c(C(=O)Nc4ccc(OCC(C)(C)O)cc4)cccc32)nc1 [Example 1-155]
17,< 100 nM,Cc1ccc(N2CCOc3c(C(=O)Nc4ccc(N5CCCCC5)c(F)c4)cccc32)nc1 [Example 1-156]
18,< 100 nM,Cc1ccc(N2CCOc3c(C(=O)Nc4ccc(N5CCOCC5)c(F)c4)cccc32)nc1 [Example 1-157]
19,< 100 nM,Cc1ccc(N2CCOc3c(C(=O)Nc4ccc(F)c(F)c4)cccc32)nc1 [Example 1-158]
20,< 100 nM,COc1ccc(NC(=O)c2cccc3c2OCCN3c2ccc(C)cn2)cc1F [Example 1-159]
21,< 100 nM,CCOc1ccc(NC(=O)c2cccc3c2OCCN3c2ccc(C)cn2)cc1 [Example 1-160]
22,< 100 nM,Cc1ccc(N2CCOc3c(C(=O)Nc4ccc5c(c4)N(C)CCC5)cccc32)nc1 [Example 1-162]

# — US8008292B2, “Condensed benzamide compounds and inhibitors of vanilloid receptor subtype 1 (VR1) activity” (Japan Tobacco Inc., priority 2004, dated 2011)
